The term IC50 denotes the concentration needed to halve the response being measured. High values mean weaker potency in that assay, low ones greater potency in that assay. By MIC is commonly meant the lowest concentration that inhibits growth of the organism.

Three compounds from ChEMBL document CHEMBL5226286, “The application of isatin-based multicomponent-reactions in the quest for new bioactive and druglike molecules” (Eur J Med Chem, 2021) can be followed below.

For test [1], the system named is HeLa. The test can be described thus: Anticancer activity against human HeLa cells measured after 48 hrs by MTT assay. Format: functional, cell-based. On the technique in general: Formazan colour is commonly taken as a measure of viable cells.
The subject of test [2] is NIH3T3. The test can be described thus: Anticancer activity against mouse 3T3 cells measured after 48 hrs by MTT assay. To be noted: NIH3T3, 48 h. Format: functional, cell-based.
Test [3] relates to Leishmania major. Briefly: Antileishmanial activity against Leishmania major promastigotes incubated for 72 hrs by micrscopic analysis. Format: functional.
In test [4] the test system is Escherichia coli. The test can be described thus: Antibacterial activity against Escherichia coli ATCC 25922. Format: functional.
Test [5] concerns Pseudomonas aeruginosa. Briefly: Antibacterial activity against multidrug resistant Pseudomonas aeruginosa 034. Format: functional.
In test [6] the test system is Staphylococcus aureus. Briefly: Antibacterial activity against Staphylococcus aureus ATCC 29213. Format: functional.
The test system of test [7] is Klebsiella pneumoniae. The test can be described thus: Antibacterial activity against Klebsiella pneumoniae ATCC 700603. Format: functional.
For test [8], the system named is Pseudomonas aeruginosa. Briefly: Antibacterial activity against Pseudomonas aeruginosa No.010. Format: functional.
For test [9], the system named is Staphylococcus aureus. Briefly: Antibacterial activity against methicillin resistant Staphylococcus aureus ATCC 43300. Format: functional.
For test [10], the system named is Pseudomonas aeruginosa. The test can be described thus: Antibacterial activity against Pseudomonas aeruginosa ATCC 27853. Format: functional.
Test [11] relates to Pseudomonas aeruginosa. Briefly: Antibacterial activity against multidrug resistant Pseudomonas aeruginosa 025. Format: functional.
Test [12] has as its system Streptococcus mutans. The test can be described thus: Antibacterial activity against Streptococcus mutans PTCC 1601. Format: functional.
Test [13] relates to Bacillus pumilus. The test can be described thus: Antibacterial activity against Bacillus pumilus PTCC 1114. Format: functional.
Test [14] has as its system Staphylococcus aureus. Briefly: Antibacterial activity against Staphylococcus aureus ATCC 25923. Format: functional.
Test [15] concerns Staphylococcus aureus. Briefly: Antibacterial activity against Staphylococcus aureus MTCC 96. Format: functional.
Test [16] has as its system Proteus mirabilis. The test can be described thus: Antibacterial activity against Proteus mirabilis. Format: functional.
The test system of test [17] is Bacillus subtilis. Briefly: Antibacterial activity against Bacillus subtilis ATCC 465. Format: functional.
In test [18] the test system is Micrococcus luteus. Briefly: Antibacterial activity against Micrococcus luteus PTCC 1110. Format: functional.
In test [19] the test system is Bacillus subtilis. The test can be described thus: Antibacterial activity against Bacillus subtilis MTCC 441. Format: functional.
The subject of test [20] is Staphylococcus epidermidis. The test can be described thus: Antibacterial activity against Staphylococcus epidermidis ATCC 12228. Format: functional.
Test [21] deals with Enterococcus faecalis. The test can be described thus: Antibacterial activity against Enterococcus faecalis ATCC 29737. Format: functional.
Test [22] relates to Escherichia coli. Briefly: Antibacterial activity against Escherichia coli MTCC 1689. Format: functional.
In test [23] the test system is Klebsiella pneumoniae. The test can be described thus: Antibacterial activity against Klebsiella pneumoniae ATCC 29655. Format: functional.

Values after ≈ are worked out from the molar mass of the structure shown.

`O=C1/C(=C/c2cccc([N+](=O)[O-])c2)CCC[C@]12[C@H]1CCCN1[C@]1(C(=O)Nc3ccccc31)[C@H]2c1cccc([N+](=O)[O-])c1`: the IC50 in test [1] came to 4.8 µM; in [2] it was 19.1 µM. The compound further gave an MIC in test [3] of 6.8 µM (≈ 3.84 µg/mL).

Take `COc1ccc(C2C3CCCN3C3(C(=O)Nc4ccccc43)C2C(=O)c2ccco2)cc1` (stereo not drawn): the MIC in test [4] stood at 128 µg/mL (≈ 299 µM); in [5] it was 32 µg/mL (≈ 74.7 µM); in test [6], 64 µg/mL (≈ 149 µM); in [7], 128 µg/mL (≈ 299 µM); in [8] it was 16 µg/mL (≈ 37.3 µM); in test [9], 128 µg/mL (≈ 299 µM). For the same compound, the MIC in test [10] came to 15 µg/mL (≈ 35 µM); in test [11] it was 16 µg/mL (≈ 37.3 µM).

For `CN(C)[C@@H]1C(O)=C(C(N)=O)C(=O)[C@@]2(O)C(O)=C3C(=O)c4c(O)cccc4[C@@](C)(O)[C@H]3C[C@@H]12` [TETRACYCLINE], the MIC in test [12] came to 2 µg/mL (≈ 4.5 µM); in [13], 8 µg/mL (≈ 18 µM); in test [14], 4 µg/mL (≈ 9 µM); in test [15], 5 µg/mL (≈ 11.3 µM); in test [16], 15 µg/mL (≈ 33.8 µM); in test [17], 4 µg/mL (≈ 9 µM). In addition, the MIC was 4 µg/mL (≈ 9 µM) in [18]; 10 µg/mL (≈ 22.5 µM) in test [19]; below 2 µg/mL in test [20]; 8 µg/mL (≈ 18 µM) in test [21]; 10 µg/mL (≈ 22.5 µM) in [22]; 16 µg/mL (≈ 36 µM) in test [23].
